Results on nine molecules are retold here after patent US20240287138A1, “CYCLIC PEPTIDES FOR INHIBITING TNF RECEPTOR 1 ACTIVITY” (Merck Sharp & Dohme LLC, priority 2023, published 2024).

Numbered stars: 1 amine (or outer) side, 2 acyl side, 3 side chain; on linkers, the order of the positions; unused ones are H or OH. Bridge positions count the residues as written; N and C are the ends. Square brackets hold non-standard residues; d marks the D form. Peptide text beside a SMILES is read from it. Trp(βS-Me,7-OMe) = COc1cccc2c([C@H](C)[C@H](N)C(=O)O)c[nH]c12; Trp(7-CN) = N#Cc1cccc2c(C[C@H](N)C(=O)O)c[nH]c12; Trp(7-Cl) = N[C@@H](Cc1c[nH]c2c(Cl)cccc12)C(=O)O; Phe(4-CONH2) = NC(=O)c1ccc(C[C@H](N)C(=O)O)cc1; Phe(4-COOH) = N[C@@H](Cc1ccc(C(=O)O)cc1)C(=O)O; 4Pal(3S-Me) = C[C@@H](c1ccncc1)[C@H](N)C(=O)O; Trp(7-aza) = N[C@@H](Cc1c[nH]c2ncccc12)C(=O)O; Phe(4-CH2NH2) = NCc1ccc(C[C@H](N)C(=O)O)cc1; X52 = C[C@@H](C(=O)[*:2])N(CCC(N)=O)[*:1]; Pip(5R-OH) = O=C(O)[C@@H]1CC[C@@H](O)CN1; Tyr(2-F) = N[C@@H](Cc1ccc(O)cc1F)C(=O)O; X1 = O=C([C@@H]1CC[C@H](N[*:1])C1)[*:2]; X53 = O=C([C@H](Cc1ccncc1F)N[*:1])[*:2]; X35 = CC(C)(N)[C@H](N[*:1])C(=O)[*:2]; AEF = NCCOc1ccc(C[C@H](N)C(=O)O)cc1; Val(3-OH) = CC(C)(O)[C@H](N)C(=O)O; Pip(4-aza) = O=C(O)[C@@H]1CNCCN1; 4Pal = N[C@@H](Cc1ccncc1)C(=O)O; NMeE = CN[C@@H](CCC(=O)O)C(=O)O; dHyp = O=C(O)[C@H]1C[C@H](O)CN1; X36 = C[C@@H](C(=O)[*:1])[*:2]; Ahp(2) = CCCCC[C@H](N)C(=O)O; hSer = N[C@@H](CCO)C(=O)O; αMeS = C[C@](N)(CO)C(=O)O; Nle = CCCC[C@H](N)C(=O)O; Sar = CNCC(=O)O

Experiment [1] addresses T1, human soluble TNFR1 (sTNFR1) (Homo sapiens, UniProt P19438).
T1 construct: made in house; host or cells: Sf21 (baculovirus)
T1 sequence (P19438 with tags, fused parts or gaps): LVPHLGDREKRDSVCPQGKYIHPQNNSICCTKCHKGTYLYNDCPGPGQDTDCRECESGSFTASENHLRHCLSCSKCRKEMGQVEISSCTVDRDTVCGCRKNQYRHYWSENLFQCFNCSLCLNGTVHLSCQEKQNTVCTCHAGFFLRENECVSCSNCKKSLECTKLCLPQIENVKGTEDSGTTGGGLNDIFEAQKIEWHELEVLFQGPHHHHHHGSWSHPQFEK
The experiment can be described thus: Human sTNFR1-peptide displacement assay (LanthaScreen Eu TR-FRET binding assay). The procedure, abridged: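 Readout is the 665/615 nm TR-FRET ratio (Eu anti-His donor, streptavidin-Alexa647 acceptor), normalized to DMSO and saturating displacer, fit by Morrison-based five-parameter logistic for Kd^app. His-tagged sTNFR1 (1-211) prebound to 100 nM biotinylated peptide SEQ ID NO.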
For orientation: TR-FRET usually uses a lanthanide donor and a delayed reading to cut background.

The target in experiment [2] is T2, TNFα-induced NF-κB signal transduction pathway (TNFR1 signaling) in THP-1 cells (Homo sapiens, UniProt P19438).
T2 sequence (P19438 30-455): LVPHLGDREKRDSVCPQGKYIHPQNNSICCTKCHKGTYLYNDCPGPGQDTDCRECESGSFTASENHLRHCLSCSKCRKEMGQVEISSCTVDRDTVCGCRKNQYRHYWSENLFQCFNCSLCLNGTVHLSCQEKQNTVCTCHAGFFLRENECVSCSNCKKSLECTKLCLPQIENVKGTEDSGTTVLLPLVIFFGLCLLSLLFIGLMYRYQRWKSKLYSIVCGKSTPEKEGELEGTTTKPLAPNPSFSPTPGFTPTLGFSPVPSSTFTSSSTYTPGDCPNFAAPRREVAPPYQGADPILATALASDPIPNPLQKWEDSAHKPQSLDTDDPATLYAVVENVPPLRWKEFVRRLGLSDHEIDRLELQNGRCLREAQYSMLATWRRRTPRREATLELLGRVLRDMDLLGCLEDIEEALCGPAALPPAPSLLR
The experiment can be described thus: THP-1 Lucia NF-κB reporter cell assay, inhibition of TNFα-induced NF-κB signaling. The conditions noted are these: THP-1 NF-κB Lucia reporter cells, 10 ng/mL TNFα, 16-18 h, secreted luciferase; read-out: THP-1 IC50. Format: cell-based. The method in brief: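 IC50 from a 4-parameter logistic fit of secreted luciferase luminescence (QUANTI-Luc), normalised to min/max controls. Reporter THP-1 cells were exposed to peptides for 1 h at 37 °C before 10 ng/mL TNFα (final) was added overnight (16–18 h).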

As for `CCCC[C@@H]1NC(=O)CSC[C@@H](C(N)=O)NC(=O)[C@H]([C@@H](C)c2c[nH]c3c(OC)cccc23)NC(=O)CN(C)C(=O)[C@H](Cc2ccc(O)cc2)NC(=O)[C@H](Cc2ccc(C(=O)O)cc2)NC(=O)[C@](C)(CO)NC(=O)[C@H](Cc2c[nH]c3c(Cl)cccc23)NC(=O)[C@H]([C@@H](C)c2ccncc2)NC(=O)[C@H](CC(N)=O)NC(=O)[C@H](CCC(=O)O)N(C)C(=O)[C@H](Cc2c[nH]c3ccccc23)NC(=O)[C@H](CO)NC(=O)[C@H](Cc2ccc(CN)cc2)NC1=O` [SEQ ID NO. 252] ({CH2CO}-[Nle][Phe(4-CH2NH2)]SW[NMeE]N[4Pal(3S-Me)][Trp(7-Cl)][αMeS][Phe(4-COOH)]Y[Sar][Trp(βS-Me,7-OMe)]C-NH2; thioether N-14), the IC50 – broadly, the concentration that gives 50% inhibition – is 2.39 nM in experiment [1] and 23.3 nM in experiment [2].

Turning to `CCCC[C@@H]1NC(=O)[C@@H]2CC[C@@H](C2)NC(=O)[C@H]([C@@H](C)c2c[nH]c3c(OC)cccc23)NC(=O)CN(C)C(=O)[C@H](Cc2ccc(C(N)=O)cc2)NC(=O)[C@H](Cc2ccc(C(N)=O)cc2)NC(=O)[C@](C)(CO)NC(=O)[C@H](Cc2c[nH]c3c(C#N)cccc23)NC(=O)[C@H](Cc2ccc(C(=O)O)cc2)NC(=O)[C@H](CC(N)=O)NC(=O)[C@H](C)N(CCC(N)=O)C(=O)[C@H](Cc2c[nH]c3ncccc23)NC(=O)[C@@H]2CC[C@@H](O)CN2C(=O)[C@H](Cc2ccncc2)NC1=O` [SEQ ID NO. 147] (cyclo([4Pal][Pip(5R-OH)][Trp(7-aza)][X52]N[Phe(4-COOH)][Trp(7-CN)][αMeS][Phe(4-CONH2)][Phe(4-CONH2)][Sar][Trp(βS-Me,7-OMe)][X1][Nle])), the Kd (commonly the free concentration of one partner at which half of the binding sites on the other are occupied at equilibrium, for simple one-to-one binding) in experiment [1] is 0.21 nM. Also, the IC50 in experiment [2] turned out to be 1.4 nM.

`CCCC[C@@H]1NC(=O)[C@@H]2CC[C@@H](C2)NC(=O)[C@H]([C@@H](C)c2c[nH]c3c(OC)cccc23)NC(=O)CN(C)C(=O)[C@H](Cc2ccc(O)cc2)NC(=O)[C@H](Cc2ccc(C(N)=O)cc2)NC(=O)[C@](C)(CO)NC(=O)[C@H](Cc2c[nH]c3c(Cl)cccc23)NC(=O)[C@H](Cc2ccc(OCCN)cc2)NC(=O)[C@H](CC(N)=O)NC(=O)[C@H](CCC(=O)O)N(C)C(=O)[C@H](Cc2c[nH]c3ccccc23)NC(=O)[C@@H]2CC[C@@H](O)CN2C(=O)[C@H](Cc2ccncc2)NC1=O` [SEQ ID NO. 145] (cyclo([4Pal][Pip(5R-OH)]W[NMeE]N[AEF][Trp(7-Cl)][αMeS][Phe(4-CONH2)]Y[Sar][Trp(βS-Me,7-OMe)][X1][Nle])) gave a dissociation constant Kd in experiment [1] of 0.18 nM. In addition, the half-inhibitory concentration (IC50) in experiment [2] was 0.8 nM.

In experiment [1], `CCCC[C@@H]1NC(=O)[C@H](C)SC[C@@H](C(N)=O)NC(=O)[C@H]([C@@H](C)c2c[nH]c3c(OC)cccc23)NC(=O)CN(C)C(=O)[C@H](Cc2ccc(O)cc2)NC(=O)[C@H](Cc2ccc(C(N)=O)cc2)NC(=O)[C@](C)(CO)NC(=O)[C@H](Cc2c[nH]c3c(Cl)cccc23)NC(=O)[C@H](Cc2ccncc2)NC(=O)[C@H](CC(N)=O)NC(=O)[C@H](CCC(=O)O)N(C)C(=O)[C@H](Cc2c[nH]c3ncccc23)NC(=O)[C@H](C(C)(C)N)NC(=O)[C@H](Cc2ccncc2)NC1=O` [SEQ ID NO. 273] ([Nle][4Pal][X35][Trp(7-aza)][NMeE]N[4Pal][Trp(7-Cl)][αMeS][Phe(4-CONH2)]Y[Sar][Trp(βS-Me,7-OMe)]C-NH2; linker N-14 via X36) came in with an IC50 of 0.6 nM and a dissociation constant Kd of 0.33 nM. Also, the concentration for half-maximal inhibition (IC50) in experiment [2] was 4.1 nM.

`CCCC[C@@H]1NC(=O)[C@@H]2CC[C@@H](C2)NC(=O)[C@H]([C@@H](C)c2c[nH]c3c(OC)cccc23)NC(=O)CN(C)C(=O)[C@H](Cc2ccc(O)cc2)NC(=O)[C@H](Cc2ccc(C(=O)O)cc2)NC(=O)[C@](C)(CO)NC(=O)[C@H](Cc2c[nH]c3c(Cl)cccc23)NC(=O)[C@H](Cc2ccncc2)NC(=O)[C@H](CC(N)=O)NC(=O)[C@H](CCC(=O)O)N(C)C(=O)[C@H](Cc2c[nH]c3ccccc23)NC(=O)[C@@H]2CNCCN2C(=O)[C@H](Cc2ccncc2F)NC1=O` [SEQ ID NO. 201] (cyclo([4Pal][Trp(7-Cl)][αMeS][Phe(4-COOH)]Y[Sar][Trp(βS-Me,7-OMe)][X1][Nle][X53][Pip(4-aza)]W[NMeE]N)): in experiment [1], the Kd is 0.21 nM. For the same molecule, in experiment [2], the 50% inhibitory concentration (IC50) turned out to be 0.9 nM.

In experiment [1], `CCCC[C@@H]1NC(=O)CSC[C@@H](C(N)=O)NC(=O)[C@H]([C@@H](C)c2c[nH]c3c(OC)cccc23)NC(=O)CN(C)C(=O)[C@H](Cc2ccc(O)cc2)NC(=O)[C@H](Cc2ccc(C(=O)O)cc2)NC(=O)[C@](C)(CO)NC(=O)[C@H](Cc2c[nH]c3c(Cl)cccc23)NC(=O)[C@H](Cc2ccncc2)NC(=O)[C@H](CC(N)=O)NC(=O)[C@H](CCC(=O)O)N(C)C(=O)[C@H](Cc2c[nH]c3ncccc23)NC(=O)[C@H](C(C)(C)O)NC(=O)[C@H](Cc2c[nH]cn2)NC1=O` [SEQ ID NO. 217] ({CH2CO}-[Nle]H[Val(3-OH)][Trp(7-aza)][NMeE]N[4Pal][Trp(7-Cl)][αMeS][Phe(4-COOH)]Y[Sar][Trp(βS-Me,7-OMe)]C-NH2; thioether N-14) showed a 50% inhibitory concentration (IC50) of 1 nM and a Kd of 0.73 nM. In addition, the concentration for half-maximal inhibition (IC50) in experiment [2] was 4.4 nM.

In turn, `CCCC[C@@H]1NC(=O)[C@@H]2CC[C@@H](C2)NC(=O)[C@H]([C@@H](C)c2c[nH]c3c(OC)cccc23)NC(=O)CN(C)C(=O)[C@H](Cc2ccc(O)cc2F)NC(=O)[C@H](Cc2ccc(C(=O)O)cc2)NC(=O)[C@](C)(CO)NC(=O)[C@H](Cc2c[nH]c3c(Cl)cccc23)NC(=O)[C@H](Cc2ccncc2)NC(=O)[C@H](CC(N)=O)NC(=O)[C@H](CCC(=O)O)N(C)C(=O)[C@H](Cc2c[nH]c3ccccc23)NC(=O)[C@@H]2CNCCN2C(=O)[C@H](Cc2ccncc2)NC1=O` [SEQ ID NO. 175] (cyclo([4Pal][Trp(7-Cl)][αMeS][Phe(4-COOH)][Tyr(2-F)][Sar][Trp(βS-Me,7-OMe)][X1][Nle][4Pal][Pip(4-aza)]W[NMeE]N)) displayed a Kd in experiment [1] of 0.22 nM. In addition, in experiment [2], the IC50 turned out to be 0.9 nM.

In experiment [1], `CCCC[C@@H]1NC(=O)[C@@H]2CC[C@@H](C2)NC(=O)[C@H]([C@@H](C)c2c[nH]c3c(OC)cccc23)NC(=O)CN(C)C(=O)[C@H](Cc2ccc(O)cc2)NC(=O)[C@H](Cc2ccc(C(=O)O)cc2)NC(=O)[C@](C)(CO)NC(=O)[C@H](Cc2c[nH]c3c(Cl)cccc23)NC(=O)[C@H](Cc2ccncc2F)NC(=O)[C@H](CC(N)=O)NC(=O)[C@H](CCC(=O)O)N(C)C(=O)[C@H](Cc2c[nH]c3ccccc23)NC(=O)[C@@H]2CNCCN2C(=O)[C@H](Cc2ccncc2)NC1=O` [SEQ ID NO. 198] (cyclo([4Pal][Pip(4-aza)]W[NMeE]N[X53][Trp(7-Cl)][αMeS][Phe(4-COOH)]Y[Sar][Trp(βS-Me,7-OMe)][X1][Nle])) registered a Kd of 0.31 nM. Further, the concentration for half-maximal inhibition (IC50) in experiment [2] amounted to 0.8 nM.

`CCCCC[C@@H]1NC(=O)[C@@H]2CC[C@@H](C2)NC(=O)[C@H]([C@@H](C)c2c[nH]c3c(OC)cccc23)NC(=O)CN(C)C(=O)[C@H](Cc2ccc(C(N)=O)cc2)NC(=O)[C@H](Cc2ccc(C(N)=O)cc2)NC(=O)[C@](C)(CO)NC(=O)[C@H](Cc2c[nH]c3c(C#N)cccc23)NC(=O)[C@H](Cc2ccc(C(=O)O)cc2)NC(=O)[C@H](CC(N)=O)NC(=O)[C@H]2C[C@H](O)CN2C(=O)[C@H](Cc2c[nH]c3ccccc23)NC(=O)[C@H](CCOC)NC(=O)[C@H]([C@@H](C)c2ccncc2)NC1=O` [SEQ ID NO. 154] (cyclo([Ahp(2)][4Pal(3S-Me)][hSer](Me)W[dHyp]N[Phe(4-COOH)][Trp(7-CN)][αMeS][Phe(4-CONH2)][Phe(4-CONH2)][Sar][Trp(βS-Me,7-OMe)][X1])) gave a Kd in experiment [1] of 0.17 nM. Besides, the IC50 in experiment [2] came out at 1.2 nM.
